The source of these data is US4661495A, “Arphamenine-related compounds useful for potentiating the immune response in a living animal” (Zaidan Hojin Biseibutsu Kagaku Kenkyu Kai, priority 1984, dated 1987).

In data set [1] the test system is immune response. The note with it: earlier publications/filings; cited from earlier work.
Data set [2] concerns tumor. The following applies: earlier filings; cited from earlier work.
The target in data set [3] is T1, carboxypeptidase A (Bos taurus, UniProt P00730).
T1 construct: purchased Sigma Co. Type 1; host or cells: bovine pancreas
T1 sequence (P00730 111-417 limits assumed): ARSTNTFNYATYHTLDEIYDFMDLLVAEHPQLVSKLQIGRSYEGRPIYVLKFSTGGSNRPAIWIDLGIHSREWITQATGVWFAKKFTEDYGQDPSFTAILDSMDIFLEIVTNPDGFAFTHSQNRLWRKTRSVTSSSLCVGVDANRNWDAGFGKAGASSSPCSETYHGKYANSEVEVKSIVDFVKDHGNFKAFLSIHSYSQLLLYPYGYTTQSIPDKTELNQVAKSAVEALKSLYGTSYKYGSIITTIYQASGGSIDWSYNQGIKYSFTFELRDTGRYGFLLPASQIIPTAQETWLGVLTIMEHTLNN
As to the kind of experiment: inhibitory activity of the compounds to carboxypeptidase A. The class given is biochemical, bovine. The note with it: hippuryl-L-phenylalanine substrate, pH 7.5, 37° C., 30 minutes; read-out: IC50 (50% Inhibition Concentration) (converted). The procedure: (1) Method of testing the inhibitory activity of the compounds to carboxypeptidase A: The carboxypeptidase A-inhibitory activity was determined according to a modification of the method of Hayakari et al. (M. Hayakari et al., "Analytical Biochemistry" 84, 361-369, 1978). Thus, a mixture of 0.05 ml of a solution of 10 mM hippuryl-L-phenylalanine (as substrate), 0.25 ml of 0.05 M Tris-hydrochloride buffer (pH 7.5) containing 0.9 M NaCl and 0.15 ml of a solution containing a test compound as produced in Example 1, 2, 3 or 4 shown hereinafter was heated at 37° C. for 3 minutes. To said mixture was then added 0.05 ml of a carboxypeptidase A (Type 1, as extracted from bovine pancreas, a product of Sigma Co.), and the enzymatic reaction was effected at 37° C. for 30 minutes. The reaction solution was admixed with 0.03 ml of aqueous 1N sodium hydroxide to stop the reaction. After allowing to stand at ambient temperature for 15 minutes, the reaction solution was admixed with 2 ml of 0.06 M phosphate buffer (pH 7.2) and with 2 ml of a solution of 1% cyanuric chloride in ethylene glycol monomethylester. After the reaction solution was allowed to stand at ambient temperature for 5 minutes, absorbance (a) at 382 nm of the reaction solution was measured. For the blank test, the above procedure was repeated using said buffer solutions without the test compound, and the absorbance (b) was measured in the blank test. The percentage for inhibition to carboxypeptidase A was calculated according to the equation: [formula] On the basis of the values of percentages of inhibition measured by the above procedure, 50% Inhibition Concentration (IC50) was evaluated.

The subject of data set [4] is D.T.H. response with sheep red blood cells. As to the kind of experiment: effect on cell-mediated or cellular immunity: Delayed Type Hypersensitivity (D.T.H.) with sheep red blood cells. The data set is classed as in vivo, CDF1-mouse. The following applies: oral, 24 hours after challenge, * P < 0.05. The procedure: (2) The effect on cell-mediated or cellular immunity:
The effect of the new arphamenine-related compounds on cell-mediated or cellular immunity was evaluated by measuring Delayed Type Hypersensitivity (D.T.H.) using mice which received sheep red blood cell inoculated as antigen into the footpad of mice for immunization (see P. H. Lagrange, G. B. Mackaness and T. E. Miller: "J. Exp. Med.", 139, 1529-1539 (1974)).
A suspension of 10^8 sheep red blood cells (SRBC) in 0.05 ml of physiological saline was subcutaneously injected into one footpad of each CDF1 -mouse (female, 8 weeks-aged, 5 mice in each group) for immunization. Simultaneously, the mouse under test was given orally the test compound at a dosage of 5 mg/Kg, 0.5 mg/Kg or 0.05 mg/Kg as a solution of the test compound which was prepared by dissolving the test compound in physiological saline and then filtering the resulting solution by a millipore filter. On 4 days after the administration of the test compound, 10^8 sheep red blood cells were subcutaneously injected into another footpad of each test mouse for secondary challenge of the D.T.H. response. 24 Hours after the challenge, the thickness of the footpads was measured with calipers. Concurrently, the thickness of footpad of control mice which had received the injection of SRBC and physiological saline without the administration of the test compound was also measured in each mouse.
The effect of the test compound on the DTH response was evaluated by a percentage of increase in footpad thickness as calculated according to the following equation: [formula]

Data set [5] relates to ICR-strain mice. In words: Toxicity after intraperitoneal administration. The note with it: 100 mg/Kg intraperitoneally, ICR-strain mice (male, 5 weeks-aged). The class given is in vivo.
Data set [6] relates to carboxypeptidase. The following applies: J. Antibiot., 37, 682 (1984); cited from earlier work.

On to `N=C(N)NCCCC(N)C(=O)CC(Cc1ccccc1)C(=O)O` (centres unmarked) [arphamenine A], for which the immunopotentiating activity result in data set [1] is “immunopotentiating activity”. The antitumor activity entry in data set [2] was “antitumor activity”.
Consider `Cc1cc(C)nc(NCCCC(NC(=O)OCc2ccccc2)C(=O)CC(Cc2ccccc2)C(=O)O)n1` (centres unmarked) [Example 3 (b), 5-benzyloxycarbonylamino-8-[(4,6-dimethylpyrimidin-2-yl)amino]-4-oxo-2-phenylmethyloctanoic acid], for which the IC50 in data set [3] is 123 nM. Moreover, the “Percentage of increase in footpad thickness” value (“Percentage of increase” for short) was determined as 110 Percentage in data set [4] (0.05 mg/Kg), 120 Percentage in data set [4] (0.5 mg/Kg) and 136 Percentage in data set [4] (5 mg/Kg). Also, in data set [5], the death entry is given as “no death”.
For `Cc1cc(C)nc(NCCCC(NC(=O)c2ccccc2)C(=O)CC(Cc2ccc(O)cc2)C(=O)O)n1` (centres unmarked) [Example 2 (b), 5-benzoylamino-8-[(4,6-dimethylpyrimidin-2-yl)amino]-2-(4'-hydroxyphenylmethyl)-4-oxo-octanoic acid] the same measures were 17.4 nM, 113 Percentage, 130 Percentage, 144 Percentage and “no death”.
Take `Cc1cc(C)nc(NCCCC(NC(=O)c2ccccc2)C(=O)CC(Cc2ccccc2)C(=O)O)n1` (centres unmarked) [Example 1 (b), 5-benzoylamino-8-[(4,6-dimethylpyrimidin-2-yl)amino]-4-oxo-2-phenylmethyloctanoic acid]: in data set [3], the IC50 was 40.9 nM. The results for the “Percentage of increase” value in data set [4] (0.05 mg/Kg), in data set [4] (0.5 mg/Kg) and in data set [4] (5 mg/Kg) were 107 Percentage, 121 Percentage and 128 Percentage, respectively. Besides, in data set [5], the death result is listed as “no death”.
Turning to `Cc1cc(C)nc(NCCCC(NC(=O)OCc2ccccc2)C(=O)CC(Cc2ccc(O)cc2)C(=O)O)n1` (centres unmarked) [Example 4 (b), 5-benzyloxycarbonylamino-8-[(4,6-dimethylpyrimidin-2-yl)amino]-2-(4'-hydroxyphenylmethyl)-4-oxo-octanoic acid], in data set [3], the IC50 is 655 nM. The “Percentage of increase” value came out at 110 Percentage in data set [4] (0.05 mg/Kg), 123 Percentage in data set [4] (0.5 mg/Kg) and 145 Percentage in data set [4] (5 mg/Kg). The death result in data set [5] is “no death”.
Consider `N=C(N)NCCCC(N)C(=O)CC(Cc1ccc(O)cc1)C(=O)O` (centres unmarked) [arphamenine B], for which the immunopotentiating activity entry in data set [1] is “immunopotentiating activity”. Moreover, the antitumor activity result in data set [2] is “antitumor activity”.
For benzylmalic acid, the carboxypeptidase-inhibitory activity result in data set [6] is “having a carboxypeptidase-inhibitory activity”. For the same compound, in data set [1], the immunopotentiating activity entry is listed as “shows an immunopotentiating activity”.
